Values joined by “and” are separate entries in the source; they are usually repeats but may differ in a detail not shown here. Identical values can stand only once.
Experiment: Visual assessment of sweetener solubilization (solution aspect) at room temperature
Assay type: physicochemical
Description: Unless otherwise stated, the inventive compositions of the examples were prepared according to the following general procedure. Solvent A, Solvent B (or mix of solvents B) and solvent C (or mix of solvents C) were mixed using a mechanical stirrer at room temperature (22° C.) to obtain a clear one-phase liquid. A solid natural sweetener in pure form or a blend of solid natural sweeteners was then added to the transparent solvent mixture and mechanically stirred. Mechanical stirring was maintained until the complete solubilization of the sweetener(s) at room temperature was observed. Comparative compositions were prepared analogously. The tables in the following examples summarize the components used in the inventive and comparative compositions.
Comparative and inventive compositions were prepared according to Table 1 below. The solubilization of the sweetener was assessed visually as a function of time. The stability of the concentrated solution (transparency of the solution) was also assessed visually at room temperature (22° C.) as a function of time.

Amount dispersed giving non-complete solubilization and a cloudy solution (binary mix ethanol/water 80/20, after 1 day at room temperature (22° C.)): 3 % wt
Amount dispersed giving non-complete solubilization and a cloudy solution (binary mix glycerol/water 80/20, after 1 day at room temperature (22° C.)): 2 % wt and 1 % wt
Amount dispersed giving non-complete solubilization and a cloudy solution (binary mix propylene glycol/glycerol 33/66, after 2 days at room temperature (22° C.)): 4.6 % wt
Amount of sweetener that was soluble (binary mix propylene glycol/glycerol 33/66, room temperature (22° C.)): 2.6 % wt
Amount dispersed giving non-complete solubilization and a cloudy solution (binary mix propylene glycol/glycerol 50/50, after 2 days at room temperature (22° C.)): 4.6 % wt
Amount of sweetener that was soluble (binary mix propylene glycol/glycerol 50/50, room temperature (22° C.)): 3.8 % wt
Amount dispersed giving non-complete solubilization and a cloudy solution (binary mix propylene glycol/water 80/20, after 2 days at room temperature (22° C.)): 11 % wt
Amount of sweetener that was soluble (binary mix propylene glycol/water 80/20, room temperature (22° C.)): 10 % wt
Amount of sweetener solubilized (glycerol/water 80/20 with 48% wt of glycerol replaced by ethanol): 12%
Structure (SMILES): C=C1C[C@@]23CC[C@H]4[C@@](C)(CCC[C@@]4(C)C(=O)O[C@@H]4O[C@H](CO)[C@@H](O)[C@H](O)[C@H]4O)[C@@H]2CC[C@]1(O[C@@H]1O[C@H](CO)[C@@H](O)[C@H](O[C@@H]2O[C@H](CO)[C@@H](O)[C@H](O)[C@H]2O)[C@H]1O[C@@H]1O[C@H](CO)[C@@H](O)[C@H](O)[C@H]1O)C3 [Reb A (99.5%), Rebaudioside A]

From patent publication US20260206810A1, “NATURAL SWEETENER COMPOSITIONS AND USES THEREOF” (Firmenich SA, priority 2022, published 2026)
